Test results from patent publication US10499642B2, “Isoxazoline-substituted benzamides and analogues as insecticides” (SYNGENTA PARTICIPATIONS AG, priority 2015, dated 2019).
Read-outs that look alike come from different tables or passages of the source.

What was measured:
Assay type in all cases: in vivo
Spodoptera littoralis = Spodoptera littoralis (Egyptian cotton leaf worm) cotton leaf disc test; conditions: foliar, 72 h, read-out: control (at least one of mortality, anti-feedant effect, and growth inhibition)
Experimental: Spodoptera littoralis (Egyptian Cotton Leaf Worm)
Cotton leaf discs were placed on agar in 24-well microtiter plates and sprayed with aqueous test solutions prepared from 10′000 ppm DMSO stock solutions. After drying the leaf discs were infested with five L1 larvae. The samples were assessed for mortality, anti-feedant effect, and growth inhibition in comparison to untreated samples 3 days after infestation. Control of Spodoptera littoralis by a test sample is when at least one of mortality, anti-feedant effect, and growth inhibition is higher than the untreated sample.

Plutella xylostella = Plutella xylostella (diamond back moth) artificial diet test; conditions: 120 h, read-out: effect in at least one of the two categories (mortality or growth inhibition)
Experimental: Plutella xylostella (Diamond Back Moth):
(§1) 24-well microtiter plates with artificial diet were treated with aqueous test solutions prepared from 10′000 ppm DMSO stock solutions by pipetting. After drying, the plates were infested with L2 larvae (10 to 15 per well). The samples were assessed for mortality and growth inhibition in comparison to untreated samples 5 days after infestation. The following compounds gave an effect of at least 80% in at least one of the two categories (mortality or growth inhibition) at an application rate of 200 ppm: […]

Diabrotica Balteata = assay: Diabrotica balteata (corn root worm) maize sprout test; conditions: 96 h, read-out: effect in at least one of the two categories (mortality or growth inhibition)
Experimental: Diabrotica Balteata, (Corn Root Worm)
as §1, with “Maize sprouts, placed on an agar layer in 24-well” for “24-well”, “plates” for “plates with artificial diet”, “spraying.” for “pipetting.”, “(6” for “(10”, “10” for “15”, “4” for “5”

Thrips tabaci = Thrips tabaci (onion thrips) sunflower leaf disc test; conditions: foliar, 144 h
Experimental: Thrips tabaci (Onion Thrips):
(§2) Sunflower leaf discs were placed on agar in 24-well microtiter plates and sprayed with aqueous test solutions prepared from 10′000 ppm DMSO stock solutions. After drying the leaf discs were infested with a thrips population of mixed ages. The samples were assessed for mortality 6 days after infestation.

Tetranychus urticae = Tetranychus urticae (two-spotted spider mite) bean leaf disc test; conditions: foliar, 192 h
Experimental: Tetranychus urticae (Two-Spotted Spider Mite):
as §2, with “Bean” for “Sunflower”, “discs” for “discs were placed”, “were” for “and”, “mite” for “thrips”, “on mixed population (mobile stages) 8” for “6”

[1] = application rate 200 ppm, cotton leaf discs, L1 larvae, 3 days after infestation
[2] = application rate 200 ppm, artificial diet, L2 larvae, 5 days after infestation
[3] = application rate 200 ppm, maize sprouts, L2 larvae, 4 days after infestation
[4] = application rate 200 ppm, sunflower leaf discs, population of mixed ages, 6 days after infestation, read-out: mortality
[5] = application rate 200 ppm, bean leaf discs, mixed population (mobile stages), 8 days after infestation, read-out: mortality

COCC1=NOC(N(C(=O)OC(C)(C)C)C(=O)c2ccc(C3=NO[C@@](c4cc(Cl)c(F)c(Cl)c4)(C(F)(F)F)C3)cc2C)C1 (stereo partly drawn) [Compound A088]
≥ 80%: percent control (mortality, anti-feedant effect or growth inhibition) at 200 ppm (Spodoptera littoralis) | percent effect (mortality or growth inhibition) at 200 ppm (Plutella xylostella) | percent effect (mortality or growth inhibition) at 200 ppm (Diabrotica Balteata) | mortality at 200 ppm (Thrips tabaci) | mortality at 200 ppm (Tetranychus urticae)

Cc1cc(C2=NO[C@@](c3cc(Cl)c(F)c(Cl)c3)(C(F)(F)F)C2)ccc1C(=O)N(C(=O)OC(C)(C)C)C1CC(Cl)=NO1 (stereo partly drawn) [Compound A067, tert-butyl N-(3-chloro-4,5-dihydroisoxazol-5-yl)-N-[4-[(5S)-5-(3,5-dichloro-4-fluoro-phenyl)-5-(trifluoromethyl)-4H-isoxazol-3-yl]-2-methyl-benzoyl]carbamate]
≥ 80%: percent control (mortality, anti-feedant effect or growth inhibition) at 200 ppm (Spodoptera littoralis) | percent effect (mortality or growth inhibition) at 200 ppm (Plutella xylostella) | percent effect (mortality or growth inhibition) at 200 ppm (Diabrotica Balteata) | mortality at 200 ppm (Thrips tabaci) | mortality at 200 ppm (Tetranychus urticae)

Cc1cc(C2=NO[C@@](c3cc(Cl)c(Cl)c(Cl)c3)(C(F)(F)F)C2)ccc1C(=O)NC1CC(OS(C)(=O)=O)=NO1 (stereo partly drawn) [Compound A135, [5-[[2-methyl-4-[(5S)-5-(3,4,5-trichlorophenyl)-5-(trifluoromethyl)-4H-isoxazol-3-yl]benzoyl]amino]-4,5-dihydroisoxazol-3-yl] methanesulfonate]
≥ 80%: percent control (mortality, anti-feedant effect or growth inhibition) at 200 ppm (Spodoptera littoralis) | percent effect (mortality or growth inhibition) at 200 ppm (Plutella xylostella) | percent effect (mortality or growth inhibition) at 200 ppm (Diabrotica Balteata) | mortality at 200 ppm (Thrips tabaci) | mortality at 200 ppm (Tetranychus urticae)

Cc1cc(C2=NO[C@@](c3cc(Cl)c(F)c(Cl)c3)(C(F)(F)F)C2)ccc1C(=O)N[C@H]1CC(Br)=NO1 (single isomer, unassigned) [Compound A146]
≥ 80%: percent control (mortality, anti-feedant effect or growth inhibition) at 200 ppm (Spodoptera littoralis) | percent effect (mortality or growth inhibition) at 200 ppm (Plutella xylostella) | percent effect (mortality or growth inhibition) at 200 ppm (Diabrotica Balteata) | mortality at 200 ppm (Thrips tabaci) | mortality at 200 ppm (Tetranychus urticae)

Cc1cc(C2=NO[C@@](c3cc(Cl)c(F)c(Cl)c3)(C(F)(F)F)C2)ccc1C(=O)NC1CC(C(=O)O)=NO1 (stereo partly drawn) [Compound A117]
≥ 80%: percent control (mortality, anti-feedant effect or growth inhibition) at 200 ppm (Spodoptera littoralis) | percent effect (mortality or growth inhibition) at 200 ppm (Plutella xylostella) | percent effect (mortality or growth inhibition) at 200 ppm (Diabrotica Balteata) | mortality at 200 ppm (Thrips tabaci) | mortality at 200 ppm (Tetranychus urticae)

COC1=NO[C@@H](NC(=O)c2ccc(C3=NO[C@@](c4cc(Cl)c(F)c(Cl)c4)(C(F)(F)F)C3)cc2C)C1 (single isomer, unassigned) [Compound A151]
≥ 80%: percent control (mortality, anti-feedant effect or growth inhibition) at 200 ppm (Spodoptera littoralis) | percent effect (mortality or growth inhibition) at 200 ppm (Plutella xylostella) | percent effect (mortality or growth inhibition) at 200 ppm (Diabrotica Balteata) | mortality at 200 ppm (Thrips tabaci) | mortality at 200 ppm (Tetranychus urticae)

CCOC(=O)C1=NOC(N(C=O)C(=O)c2ccc(C3=NO[C@@](c4cc(Cl)c(F)c(Cl)c4)(C(F)(F)F)C3)cc2C)C1 (stereo partly drawn) [Compound A006, ethyl 5-[[4-[(5S)-5-(3,5-dichloro-4-fluoro-phenyl)-5-(trifluoromethyl)-4H-isoxazol-3-yl]-2-methyl-benzoyl]-formyl-amino]-4,5-dihydroisoxazole-3-carboxylate]
≥ 80%: percent control (mortality, anti-feedant effect or growth inhibition) at 200 ppm (Spodoptera littoralis) | percent effect (mortality or growth inhibition) at 200 ppm (Plutella xylostella) | percent effect (mortality or growth inhibition) at 200 ppm (Diabrotica Balteata) | mortality at 200 ppm (Thrips tabaci)

CSC1=NOC(NC(=O)c2ccc(C3=NO[C@@](c4cc(Cl)c(SC)c(Cl)c4)(C(F)(F)F)C3)cc2C)C1 (stereo partly drawn) [Compound A020, 4-[(5S)-5-(3,5-dichloro-4-methylsulfanyl-phenyl)-5-(trifluoromethyl)-4H-isoxazol-3-yl]-2-methyl-N-(3-methylsulfanyl-4,5-dihydroisoxazol-5-yl)benzamide]
≥ 80%: percent control (mortality, anti-feedant effect or growth inhibition) at 200 ppm (Spodoptera littoralis) | percent effect (mortality or growth inhibition) at 200 ppm (Plutella xylostella) | percent effect (mortality or growth inhibition) at 200 ppm (Diabrotica Balteata) | mortality at 200 ppm (Thrips tabaci) | mortality at 200 ppm (Tetranychus urticae)

Cc1cc(C2=NO[C@@](c3cc(Cl)c(F)c(Cl)c3)(C(F)(F)F)C2)ccc1C(=O)N(C(=O)OC(C)(C)C)C1CC(COC2CCCCO2)=NO1 (stereo partly drawn) [Compound A068]
≥ 80%: percent control (mortality, anti-feedant effect or growth inhibition) at 200 ppm (Spodoptera littoralis; [1]) | percent effect (mortality or growth inhibition) at 200 ppm (Plutella xylostella; [2]) | percent effect (mortality or growth inhibition) at 200 ppm (Diabrotica Balteata; [3]) | mortality at 200 ppm (Thrips tabaci; [4]) | mortality at 200 ppm (Tetranychus urticae; [5])

Cc1cc(C2=NO[C@@](c3cc(Cl)c(F)c(Cl)c3)(C(F)(F)F)C2)ccc1C(=O)NC1CC(/C=N/O)=NO1 (stereo partly drawn) [Compound A118]
≥ 80%: percent control (mortality, anti-feedant effect or growth inhibition) at 200 ppm (Spodoptera littoralis) | percent effect (mortality or growth inhibition) at 200 ppm (Plutella xylostella) | percent effect (mortality or growth inhibition) at 200 ppm (Diabrotica Balteata) | mortality at 200 ppm (Thrips tabaci) | mortality at 200 ppm (Tetranychus urticae)

CCOC1=NOC(N(C(=O)c2ccc(C3=NO[C@@](c4cc(Cl)c(F)c(Cl)c4)(C(F)(F)F)C3)cc2C)[C@H](C)c2ccc(OC)cc2)C1 (stereo partly drawn) [Compound A131]
≥ 80%: percent control (mortality, anti-feedant effect or growth inhibition) at 200 ppm (Spodoptera littoralis; [1]) | percent effect (mortality or growth inhibition) at 200 ppm (Plutella xylostella; [2]) | percent effect (mortality or growth inhibition) at 200 ppm (Diabrotica Balteata; [3]) | mortality at 200 ppm (Thrips tabaci; [4]) | mortality at 200 ppm (Tetranychus urticae; [5])

CCOC1=NO[C@@H](NC(=O)c2ccc(C3=NO[C@@](c4cc(Cl)cc(Cl)c4)(C(F)(F)F)C3)cc2C)C1 (single isomer, unassigned) [Compound A159]
≥ 80%: percent control (mortality, anti-feedant effect or growth inhibition) at 200 ppm (Spodoptera littoralis) | percent effect (mortality or growth inhibition) at 200 ppm (Plutella xylostella) | percent effect (mortality or growth inhibition) at 200 ppm (Diabrotica Balteata) | mortality at 200 ppm (Thrips tabaci) | mortality at 200 ppm (Tetranychus urticae)

O=C(NC1CC(Br)=NO1)c1ccc(C2=NO[C@@](c3cc(Cl)cc(Cl)c3)(C(F)(F)F)C2)cc1Cl (stereo partly drawn) [Compound A093]
≥ 80%: percent control (mortality, anti-feedant effect or growth inhibition) at 200 ppm (Spodoptera littoralis) | percent effect (mortality or growth inhibition) at 200 ppm (Plutella xylostella) | percent effect (mortality or growth inhibition) at 200 ppm (Diabrotica Balteata) | mortality at 200 ppm (Thrips tabaci) | mortality at 200 ppm (Tetranychus urticae)

COC1=NO[C@@H](N(C(=O)OC(C)(C)C)C(=O)c2ccc(C3=NO[C@@](c4cc(Cl)c(Cl)c(Cl)c4)(C(F)(F)F)C3)cc2C)C1 (single isomer, unassigned) [Compound A153]
≥ 80%: percent control (mortality, anti-feedant effect or growth inhibition) at 200 ppm (Spodoptera littoralis) | percent effect (mortality or growth inhibition) at 200 ppm (Plutella xylostella) | percent effect (mortality or growth inhibition) at 200 ppm (Diabrotica Balteata) | mortality at 200 ppm (Thrips tabaci) | mortality at 200 ppm (Tetranychus urticae)

COC1=NO[C@H](N(C(=O)OC(C)(C)C)C(=O)c2ccc(C3=NO[C@@](c4cc(Cl)c(Cl)c(Cl)c4)(C(F)(F)F)C3)cc2C)C1 (single isomer, unassigned) [Compound A152]
≥ 80%: percent control (mortality, anti-feedant effect or growth inhibition) at 200 ppm (Spodoptera littoralis) | percent effect (mortality or growth inhibition) at 200 ppm (Plutella xylostella) | percent effect (mortality or growth inhibition) at 200 ppm (Diabrotica Balteata) | mortality at 200 ppm (Thrips tabaci) | mortality at 200 ppm (Tetranychus urticae)

C/C(N)=N/OC1=NOC(NC(=O)c2ccc(C3=NO[C@@](c4cc(Cl)c(F)c(Cl)c4)(C(F)(F)F)C3)cc2C)C1 (stereo partly drawn) [Compound A143, N-[3-[(Z)-1-aminoethylideneamino]oxy-4,5-dihydroisoxazol-5-yl]-4-[(5S)-5-(3,5-dichloro-4-fluoro-phenyl)-5-(trifluoromethyl)-4H-isoxazol-3-yl]-2-methyl-benzamide]
≥ 80%: percent control (mortality, anti-feedant effect or growth inhibition) at 200 ppm (Spodoptera littoralis) | percent effect (mortality or growth inhibition) at 200 ppm (Plutella xylostella) | percent effect (mortality or growth inhibition) at 200 ppm (Diabrotica Balteata) | mortality at 200 ppm (Thrips tabaci) | mortality at 200 ppm (Tetranychus urticae)

Cc1cc(C2=NO[C@@](c3cc(Cl)cc(Cl)c3)(C(F)(F)F)C2)ccc1C(=O)N[C@H]1CC(OCC(F)(F)F)=NO1 (single isomer, unassigned) [Compound A157]
≥ 80%: percent control (mortality, anti-feedant effect or growth inhibition) at 200 ppm (Spodoptera littoralis) | percent effect (mortality or growth inhibition) at 200 ppm (Plutella xylostella) | percent effect (mortality or growth inhibition) at 200 ppm (Diabrotica Balteata) | mortality at 200 ppm (Thrips tabaci) | mortality at 200 ppm (Tetranychus urticae)
